System: HaCaT cells
Experiment: Apoptosis assay (FITC Annexin V/PI) of UV- or X-ray-irradiated HaCaT cells
Assay type: cell-based, human
Conditions: UV 50 mJ/cm^2, 48 hours
Description: A. Test Sample Pretreatment and Irradiation Treatment

| Compound | Apoptosis percentage (%) (125 μg/mL pretreatment) | Apoptosis percentage (%) (250 μg/mL pretreatment) |
| --- | --- | --- |
| O=c1c(O[C@@H]2O[C@H](CO)[C@@H](O)[C@H](O)[C@H]2O)c(-c2ccc(O)cc2)oc2cc(O)cc(O)c12 [astragalin] | 22.37 ± 3.32 | 69.07 ± 5.07 |
| O=c1cc(-c2ccc(O)cc2)oc2c([C@@H]3O[C@H](CO)[C@@H](O)[C@H](O)[C@H]3O)c(O)cc(O)c12 [vitexin] | 20.00 ± 0.73 | 70.93 ± 1.52 |

Reference: patent publication US20190134129A1, “METHOD FOR ALLEVIATING ULTRAVIOLET DAMAGE WITH ETHYL ACETATE-EXTRACTED PRODUCT OF SEDUM FORMOSANUM” (Sinotai Oncology Associate., Ltd., priority 2017, published 2019)
